Assay results reported in US20130079394A1, “Indirect modeling of new repellent molecules active against insects, acarids, and other arthropods” (CNRS (CENTRE NATIONAL RECHERCHE SCIENTIFIQUE), priority 2011, published 2013).

Tested on: mosquitoes
Assay: not given
Settings: absence of body odor attractants such as 1-octen-3-ol, lactic acid, or carbon dioxide; cited from earlier work

SMILES | repellent activity in a behavioral test
CCN(CC)C(=O)c1cccc(C)c1 [DEET, N,N-Diethyl-meta-toluamide] | strong repellent activity

Tested on: not given
Assay: not given
Settings: reported by US EPA (RED); cited from earlier work

SMILES | deaths among DEET-associated seizure cases
CCN(CC)C(=O)c1cccc(C)c1 [DEET, N,N-Diethyl-meta-toluamide] | 4 deaths

Tested on: flies
Assay: Repellency index of coumarin derivatives evaluated in vivo (index from −1 to 1, function of a number of flies)
Parameters: key to Repellency Index: index from −1 to 1, 1 = highly repellent
Settings: experimental index ranging from −1 to 1 (1 = highly repellent); measurement error about ±0.1; data set of USSN 61,501,485
Procedure: Up until now, all existing models for repellency have been based on protection time value, which is different for each. Moreover, the environmental parameters in which the animals are studied are frequently different. As a consequence, data produced using different models cannot be combined/compared. […] The numerical value obtained was not a protection time but rather an index ranging from −1 to 1 (with 1 being highly repellent). This number was calculated for each experiment and is function of a number of flies.
To minimize the deleterious effects of these potentially confounding factors, “repellency classes” were established. Based on the repellency index values, the dataset was divided into 2, 3, 4 or 5 repellency class subsets, in order to reduce the difficulty of modeling the property of slightly repellent molecules. For example, in the four classes' models, the thresholds between the classes are defined as follow: […]

SMILES | Repellency Index
O=C(c1ccc2ccc(=O)oc2c1)N1CCCCC1 [EV 05118] | −0.10
CCCCCOc1ccc2ccc(=O)oc2c1 [EV 06026] | 0.88
CCCCOc1ccc2ccc(=O)oc2c1 [EV 04036] | −0.06
CCC(CC)Cc1cc(=O)oc2ccccc12 [EV 06062] | 0.97
CC(C)(C)COc1ccc2ccc(=O)oc2c1 [EV 06162] | −0.55
CCCCCOc1cc(=O)oc2ccccc12 [EV 06136] | 0.77
CC(C)COc1ccc2oc(=O)ccc2c1 [EV07072] | 0.98
CC(C)COc1cc(=O)oc2ccccc12 [EV07070] | 0.94
CCN(CC)C(=O)COc1ccc2ccc(=O)oc2c1 [EV 05096] | 0.80
CCC(C)OC(=O)COc1ccc2ccc(=O)oc2c1 (stereo not drawn) [EV 06178] | 0.25
CCC(C)COC(=O)COc1ccc2ccc(=O)oc2c1 (stereo not drawn) [EV 06058] | 0.52
CCC(C)NC(=O)c1ccc2ccc(=O)oc2c1 (stereo not drawn) [EV 06166] | 0.25
CCCCCCCCOc1ccc2ccc(=O)oc2c1 [EV 06144] | 0.83
CCCCN(CCCC)C(=O)COc1ccc2ccc(=O)oc2c1 [EV 05120] | 0.71
CCCCCCCCN(CCCCCCCC)C(=O)COc1cc(=O)oc2ccccc12 [EV 07068] | 0.98
CCC(CC)OC(=O)COc1ccc2ccc(=O)oc2c1 [EV 05174] | 0.69
C=CCOc1ccc2ccc(=O)oc2c1 [EV 04032] | 0.19
CC(C)CCOc1cc(=O)oc2ccccc12 [EV 06140] | 0.84
C/C=C(\C)C(=O)Oc1ccc2ccc(=O)oc2c1 [EV 04024] | 0.26

SMILES | Repellency Index
CCC(C)COc1ccc2ccc(=O)oc2c1 (stereo not drawn) [EV 04094] | 0.73
CC1CCCCC1Oc1ccc2ccc(=O)oc2c1 (stereo not drawn) [EV 04084] | −0.01
CCC(C)OC(=O)c1ccc2ccc(=O)oc2c1 (stereo not drawn) [EV 05178] | 0.71
CCCCCCCCN(CCCCCCCC)C(=O)COc1ccc2ccc(=O)oc2c1 [EV 06092] | 0.35
CC1CCCCN1C(=O)COc1ccc2ccc(=O)oc2c1 (stereo not drawn) [EV 05134] | 0.78
CCC(C)Oc1ccc2ccc(=O)oc2c1 (stereo not drawn) [EV 04070] | 0.83
CCC(C)Oc1cc(=O)oc2ccccc12 (stereo not drawn) [EV 06088] | 0.82
CC(C)COC1CCC2CCC(=O)OC2C1 (stereo not drawn) [EV 04188] | 0.65
CCC(CC)OC(=O)c1ccc2ccc(=O)oc2c1 [EV 05162] | 0.62
CCC(C)Oc1ccc2ccc(=O)oc2c1 (stereo not drawn) [EV 06188] | 0.87
CCC(C)CC(=O)Oc1ccc2ccc(=O)oc2c1 (stereo not drawn) [EV 04062] | 0.04
C=C(C)C1CC=C(COc2ccc3ccc(=O)oc3c2)CC1 (stereo not drawn) [EV 04090] | 0.40
CCC(C)Oc1ccc2oc(=O)ccc2c1 (stereo not drawn) [EV 06068] | 0.88
CC(C)Oc1ccc2ccc(=O)oc2c1 [EV 04054] | 0.66
COC(=O)/C=C/c1ccccc1O [EV 05056] | 0.40
O=C(COc1ccc2ccc(=O)oc2c1)N1CCCCC1 [EV 05088] | 0.07
CC(C)C(C)Oc1cc(=O)oc2ccccc12 (stereo not drawn) [EV 06128] | 0.34
CCC(C)C(=O)Oc1ccc2ccc(=O)oc2c1 (stereo not drawn) [EV 04030] | −0.10
CCCCCCOc1ccc2ccc(=O)oc2c1 [EV 06110] | 0.78

SMILES | Repellency Index
CCC(CC)Oc1ccc2oc(=O)ccc2c1 [EV 06018] | 0.43
CCN(CC)C(=O)c1ccc2ccc(=O)oc2c1 [EV 05084] | 0.30
CCCC(C)Oc1ccc2oc(=O)ccc2c1 (stereo not drawn) [EV 06154] | 0.93
CC(C)C(C)Oc1ccc2ccc(=O)oc2c1 (stereo not drawn) [EV 06028] | 0.88
CC(=O)OC(C)C(=O)Oc1ccc2ccc(=O)oc2c1 (stereo not drawn) [EV 04122] | −0.36
CCCCC(CC)C(=O)Oc1ccc2ccc(=O)oc2c1 (stereo not drawn) [EV 04016] | 0.11
CCCC(C)Oc1cc(=O)oc2ccccc12 (stereo not drawn) [EV 06098] | 0.95
CCC(C)Oc1ccc2ccc(=O)oc2c1 (stereo not drawn) [EV 04058] | 0.76
CCC(C)OC(=O)N1CCCCC1CCOc1ccc2ccc(=O)oc2c1 (stereo not drawn) [EV 04042] | 0.43
CCCC(C)Oc1ccc2ccc(=O)oc2c1 (stereo not drawn) [EV 06044] | 0.92
CC1CCCCN1C(=O)c1ccc2ccc(=O)oc2c1 (stereo not drawn) [EV 05144] | 0.60
CC(C)CCOc1ccc2ccc(=O)oc2c1 [EV 06036] | 0.73
CCCCCCC(C)Oc1ccc2ccc(=O)oc2c1 (stereo not drawn) [EV 06148] | 0.92
CCC(CC)Oc1ccc2ccc(=O)oc2c1 [EV 04114] | 0.86
CCC(C)OC(=O)COc1ccc2ccc(=O)oc2c1 (stereo not drawn) [EV 06046] | 0.08
CCCCN(CCCC)C(=O)c1ccc2ccc(=O)oc2c1 [EV 05138] | 0.72
CCCCCCCCN(CCCCCCCC)C(=O)c1ccc2ccc(=O)oc2c1 [EV 06096] | 0.91
CCCCCCC(C)Oc1cc(=O)oc2ccccc12 (stereo not drawn) [EV07078] | 0.91

Same assay, conditions: values used as class thresholds

SMILES | repellency index (RI) of reference repellents
CCN(CC)C(=O)c1cccc(C)c1 [DEET, N,N-Diethyl-meta-toluamide] | 0.83
CCC(C)OC(=O)N1CCCCC1CCO (stereo not drawn) [Picaridine, reference compound] | 0.70
